Measured values from article PMC10526274, “Epithelial-Immune Cell Crosstalk Determines the Activation of Immune Cells In Vitro by the Human Cathelicidin LL-37 at Low Physiological Concentrations” (Biomolecules, 2023).
Values joined by “and” are separate entries in the source; they are usually repeats but may differ in a detail not shown here. Equal entries are not always repeated.

Tested on: primary blood monocytes
Assay: Multiplex xMAP cytokine levels, primary blood monocytes alone stimulated with LL-37
Type: cell-based, human
Details: 1 µM LL-37, 24 h
Experimental: Peripheral blood mononuclear cells (PBMCs) from a healthy donor were purchased from the American Type Culture Collection (ATCC PCS-800-011). Blood monocytes were isolated from PBMCs by plastic adhesion. Mature monocyte-derived dendritic cells (moDCs) were generated in vitro from peripheral blood monocytes, according to Nair et al.. Briefly, monocytes were cultured in a humidified CO2-incubator (5% CO2, 37 °C) in the complete RPMI-1640 medium (Gibco) with 10% FBS, antibiotics, and supplemented with a cytokine cocktail containing 500 U/mL rhIL-4 and 800 U/mL rhGM-CSF (both Sci-Store, Moscow, Russia). On the third day, the medium was replaced by the same fresh medium with FBS, antibiotics, and the cytokine cocktail. Induction of maturation of the immature monocyte-derived dendritic cells was performed on the 5th day by replacing the medium with the complete RPMI-1640 medium (Gibco) with 10% FBS and antibiotics, supplemented with a cytokine cocktail containing 500 U/mL rhIL-4, 800 U/mL rhGM-CSF (both Sci-Store, Moscow, Russia), and 100 U/mL rhTNF-α (Sigma-Aldrich), and subjected to subsequent incubation of the culture for 4 more days.
Primary blood monocytes, moDCs, and NKT cells were seeded in 600 µL of complete RPMI-1640 with 10% Human AB serum (Capricorn Scientific, Ebsdorfergrund, Germany) and supplemented with 1X antibiotic–antimycotic solution into the wells of 24-well plates at a density of 3–7 × 10^5 cells/well 24 h before the experiment. Then, 24 h later, the medium in each well was replaced by the same medium with 1 µM of LL-37 for the sample wells or fresh medium alone for the control wells, and the permeable inserts with the Caco-2 monolayer with TEER > 400 Ω × cm^2, containing 400 μL of the complete medium in their apical chamber, were immediately placed into the appropriate wells. Also, inserts with the Caco-2 monolayer were placed in cell-free wells of 24-well plates in the same complete RPMI-1640 medium with or without 1 µM of LL-37 as controls. Cells were kept in a CO2-incubator (5% CO2, 37 °C) for another 24 h. Then, culture medium from each well was collected, centrifuged, and frozen at −70 °C.
To quantitatively evaluate a broad spectrum of analytes secreted by human cell cultures at the protein level, multiplex xMAP technology was used. The chosen panel (cat. #HCYTA-60K-PX48, Merck, Darmstadt, Germany) included 48 different magnetic beads with primary antibodies to the following cytokines, chemokines, and growth factors: CCL11 (Eotaxin-1), Flt-3 ligand, CX3CL1 (Fractalkine), sCD40L, FGF-2, EGF, GROα, GM-CSF, G-CSF, IL-1RA, IL-1α, IL-1β, IL-2, IL-3, IL-4, IL-5, IL-6, IL-7, CXCL8 (IL-8), IL-9, IL-10, IL-12p40, IL-12p70, IL-13, IL-15, IL-17A (CTLA8), IL-17E (IL-25), IL-17F, IL-18, IL-22, IL-27, IFNγ, IFNα2, CXCL10 (IP-10), CCL2 (MCP-1), CCL7 (MCP-3), CCL22 (MDC), CXCL9 (MIG), CCL3 (MIP-1α), CCL4 (MIP-1β), CCL5 (RANTES), M-CSF, PDGF-AA, PDGF-AB/BB, TNFα, TNFβ, TGFα, and VEGF-A. The assay was performed in accordance with the manufacturer’s instructions with overnight incubation of the samples with primary antibodies, and the plate was read on a MAGPIX System (Merck) using the xPONENT 4.2 software (Merck). The acquired fluorescence data were analyzed by the MILLIPLEX Analyst v5.1 software (Merck), which realized an advanced curve-fitting algorithm. Levels of the analytes in control and experimental samples were compared with an unpaired two-sample t-test using GraphPad Prism v.8.0.1 (GraphPad Software, Inc., San Diego, CA, USA). The p-values ≤ 0.05 were considered significant.

LL-37: the only human cathelicidin, host defense antimicrobial peptide of 37 a.a. residues, produced by solid-phase peptide synthesis
RANTES level (n=2, control 1.06): 181.22 pg/mL | FLT-3L level (n=2, control 1.18): 0.93 pg/mL | IL-2 level (n=2, control 1.49): 0.99 pg/mL | IL-18 level (n=2, control 1.74): 1.22 pg/mL | IFNg level (n=2, control 1.82): 1.8 pg/mL | IL-4 level (n=2, control 1.92): 1.63 pg/mL | IL-17A level (n=2, control 2.18): 3.05 pg/mL | IL-15 level (n=2, control 2.88): 1.82 pg/mL | GM-CSF level (n=2, control 3.83): 4.97 pg/mL | TGF-a level (n=2, control 4.84): 3.88 pg/mL | IL-9 level (n=2, control 6.65): 6.65 pg/mL | TNFb level (n=2, control 10.12): 11.76 pg/mL | IFNa2 level (n=2, control 15.98): 11.65 pg/mL | EGF level (n=2, control 18.24): 17.26 pg/mL | IL-1a level (n=2, control 18.92): 25.51 pg/mL | IL-10 level (n=2, control 22.54, p = 0.23): 23.6 pg/mL and 23.64 pg/mL | IL-13 level (n=2, control 25.51): 23.32 pg/mL | IL-1b level (n=2, control 25.75, p = 0.094): 32 pg/mL and 32.49 pg/mL | IL-22 level (n=2, control 27.2): 27.2 pg/mL | Fractalkine level (n=2, control 28.72): 25.92 pg/mL | M-GSF level (n=2, control 32.5): 62.71 pg/mL | IL-12 (p40) level (n=2, control 32.89): 37.68 pg/mL | VEGFa level (n=2, control 35.58): 36.32 pg/mL | MIP-1a level (n=2, control 45.5, p = 0.0001): 109 pg/mL and 109.63 pg/mL | FGF-2 level (n=2, control 52.5): 47.27 pg/mL | PDGF-AA level (n=2, control 62.71): 47.99 pg/mL | IL-27 level (n=2, control 63.66): 67.29 pg/mL | MIP-1b level (n=2, control 78.19, p = 0.0004): 2750 pg/mL | IL-1RA level (n=2, control 86.47): 65.97 pg/mL | sCD40L level (n=2, control 108.76): 102.18 pg/mL | TNFa level (n=2, control 110.45, p = 0.15): 123 pg/mL and 123.49 pg/mL | G-CSF level (n=2, control 121.45, p = 0.002): 220 pg/mL and 220.28 pg/mL | MIG level (n=2, control 606.02, p = 0.003): 342 pg/mL and 342.19 pg/mL | PDGF-AB/BB level (n=2, control 1327): 1070 pg/mL | IP-10 level (n=2, control 1716): 11.29 pg/mL | MDC level (n=2, control 3407): 3208 pg/mL | IL-6 level (n=2, control 4145): 4861 pg/mL | MCP-3 level (n=2, control 4963): 3343 pg/mL | GROa level (n=2, control 5512): 5987 pg/mL | MCP-1 level (n=2, control 8325): 7953 pg/mL | IL-7 level (n=2, control <0.30): <0.30↓ pg/ml | IL-5 level (n=2, control <0.35): <0.35↓ pg/ml | IL-3 level (n=2, control <0.55): <0.55↓ pg/ml | IL-12 (p70) level (n=2, control <1.71): <1.71↓ pg/ml | Eotaxin level (n=2, control <2.91): <2.91↓ pg/ml | IL-17F level (n=2, control <12.19): <12.19↓ pg/ml | IL-17E/IL-25 level (n=2, control <19.43): <19.43↓ pg/ml | IL-8 level (n=2, control >21942): >21942↑ pg/ml
